The values that follow come from publication PMC8002072, “A Novel Vasoactive Peptide “PG1” from Buffalo Ice-Cream Protects from Angiotensin-Evoked High Blood Pressure” (Antioxidants, 2021).

Series [1] deals with Caco-2 cell monolayers. In words: Caco-2 cell monolayers permeation experiments. Format: in vitro ADME, human. For orientation: Passage across Caco-2 layers is used to estimate intestinal permeability.
Protocol: (§2) The colorectal adenocarcinoma (Caco-2) cell line was purchased from ATCC (Rockville, MD, USA). Cells were cultured in DMEM high glucose (4.5 g/L) with 2 mM L-glutamine and 10% (v/v) heat-inactivated fetal bovine serum. Cells were maintained at 37 °C in a humidified 5% CO2 atmosphere. Differentiation experiments were performed in a 12-well multiwell in transwell inserts (PET membrane, 0.4 µm pore size, 0.30 cm^2 surface area), plating Caco-2 at 2.6 × 10^5 cells/cm^2 for 21 days in complete medium, changed every other day.
(§3) The integrity of the monolayers was evaluated by means of the transepithelial electrical resistance (TEER) measurement using an EVOM2 epithelial voltohmmeter (World Precision Instruments, Sarasota, FL, USA). […] For the permeation assays, only intact monolayers with TEER higher than 300 Ω × cm^2 were used. In brief, PET membranes were washed for 15–20 min at 37 °C with pre-warmed Hank’s balanced salt solution (HBSS) buffered with 25 mM HEPES and NaHCO3 (0.35 g/L) to adjust pH at 7.4, or with 10 mM methanesulfonic acid to adjust pH at 6.5. HBSS was added both to the apical (0.3 mL) and to the basolateral (0.9 mL) transwell compartments, as previously described [22].
(§4) For transport experiments, donor solution containing PG1 peptide was added to the apical compartment. […]
(§5) The apparent permeability coefficient (Papp) was calculated according to the Equation (1). The donor concentration was recalculated by subtracting the cumulative amount transported to the receiver chamber for each time interval:(1) CD(ti)=CD(ti−1)−CRti−f×CRti−1×VR/VD CD (ti) and CR (ti) (μM): donor and receiver chamber concentrations calculated at each sample occasion (i) from the donor and receiver concentrations at the previous occasion CD (ti−1) and CR (ti−1), respectively; f = 1 − VS/VR: sample replacement dilution factor; VS (cm^3): sample volume; VR (cm^3): receiver chamber volume; VD (cm^3): donor chamber volume.
Series [2] can be described thus: Chemical stability in simulated enteric lumen. Format: physicochemical. The conditions noted are these: 5 µM peptide, 10 mM HCOONH4 pH 7.5, 37 °C, 3 h, mass spectrometry. As to the method:
In order to determine pharmacokinetic properties of a synthetic peptide, we have evaluated its chemical stability during in vitro simulated GI digestion. In detail, we have recreated the enteric lumen by alkalinization at pH = 7.5 with 10 mM HCOONH4 buffer.
(§1) The peptide (5 µM) was incubated for 3 h and monitored by mass spectrometry experiments. On the other hand, the assessment of PG1 enzymatic stability was performed by treating the peptide with digestive enzymes. In detail, pentapeptide was incubated with pancreatin (from the porcine pancreas), chymotrypsin (from bovine pancreas) and bile salts. Digestive reactions were carried out at 37 °C for 180 min with 1:10 or 1:100 peptide/enzyme ratio, w/w. Finally, the mixture was centrifuged at 4000× g at 4 °C for 10 min, and PG1 peptide was collected at time 0 and at the end of the experiment and then analyzed by LC-MS/MS for the mass balance calculation.

In series [3] the test system is pancreatin (from the porcine pancreas), chymotrypsin (from bovine pancreas). In words: Enzymatic stability with digestive enzymes. It is filed as in vitro ADME. The settings on record: chymotrypsin and bile salts, peptide/enzyme 1:10 or 1:100 w/w, 37 °C, 180 min, LC-MS/MS. As to the method:
as §1

Series [4] in a line: Caco-2 cell monolayers permeation experiments. Format: in vitro ADME, human. The settings on record: human; Caco-2 monolayers, HBSS, 180 min, UHPLC-MS/MS; read-out: efflux ratio (Papp,b/a/Papp,a/b).
Protocol: as §2, §3, §4, §5
Series [5] relates to Caco-2 cell monolayers. In words: Caco-2 monolayer integrity (zonulin-1 immunofluorescence) and cell vitality. Format: cell-based, human. The settings on record: PG1 25 μM, 3 h; zonulin-1 expression and cell vitality (crystal violet); Figure S2. The protocol: To evaluate the effect of PG1 peptide on colorectal adenocarcinoma (Caco-2) cells, the cells were plated in 48-well plates at a density of 36 × 10^3 cells/well. After 24 h, the Hanks’ Balanced Salt solution containing PG1 peptide at the indicated concentrations was added to the wells. The cells were examined after 3 h through microscope analysis. Finally, cells’ viability was assessed by the use of Crystal Violet Staining Solution.
All experiments were performed in triplicate, and the relative cell viability was expressed as a percentage in comparison with the untreated control cells.
Integrity of monolayers was evaluated at the end of transport experiments fixing the PET membranes with 4% paraformaldehyde (PFA) for 15 min after a wash with PBS. Membranes were then incubated with blocking solution (0.1% Triton, 1% BSA, 0.02% sodium azide, 50 mM ammonium chloride) for 20 min at room temperature in the dark, followed by incubation with anti-zonulin 1 antibody (#402200, Invitrogen, Thermo Fisher Scientific, Waltham, MA, USA) at 2 μg mL^−1 (RT, 2 h). […] Slides were examined under a Nikon fluorescence inverted microscope (Nikon Instruments Europe, Firenze, Italy) and analyzed as described.
Figure S2. (A) Fluorescence micrograph of the Caco-2 cell monolayers. […]
Original magnification 200X. […] Results are expressed as mean (± SD), and are representative of three independent experiments. […]

A short description of series [6]: Microsomal stability assay. It is filed as in vitro ADME. The conditions noted are these: human microsomes 20 mg/mL stock (5 μL in 200 µL), PG1 1 mM stock (2 μL), 100 mM phosphate buffer pH 7.4, 5 min pre-incubation, NADPH, 37 °C, 60 min, LC-MS/MS; mean ± SEM; read-out: parent compound turnover percentage. As to the method: 2 μL of PG1 peptide (1 mM) were incubated with 183 µL of 100 mM phosphate buffer (pH 7.4), and 5 μL of 20 mg/mL human microsomes (Thermo Fisher Scientific, Bremen, Germany). After pre-incubation in a water bath for 5 min, the mixture was added with 10 μL of the 20 mM NADPH at further incubated at 37 °C for 60 min. The reaction was stopped with ice-cold methanol, centrifuged at 10,000 rpm at room temperature for 5 min and analyzed by LC-MS/MS. Three controls were used: T0 reference was obtained stopping the microsomal reaction by addition of the organic solvent immediately after incubation with microsomes. As positive and negative controls were used testosterone and PG1 solution incubated without NADPH. The extent of metabolism is expressed as a percentage of the parent compound turnover using the following equation:(2) % Parent compound turnover = 100 − [concentration at 60 min/concentration at 0 min × 100]

The nature of series [7]: Serum concentration of PG1 in treated mice. The settings on record: mouse, mice treated with PG1 (10 mg/Kg daily), ACN/0.1% TFA extraction, LC-MS/MS, LOQ 8.6 pM, mean ± SEM, read-out: serum concentration of pentapeptide. It is filed as in vivo. The protocol: For the determination of serum concentration of pentapeptide in mice treated with PG1, blood samples were taken from the ventricle, performing a slow withdrawal to prevent the heart collapsing, to obtain a large quantity of high-quality blood. After collection, samples were rapidly centrifuged at 800 g to separate and collect serum. Extraction was conducted with ice-cold ACN plus 0.1% TFA (100 µL serum + 200 µL ACN). Samples were vortexed for 30 s and then centrifuged for 5 min at 10,000 rpm (Eppendorf Centrifuge model 5425). The supernatant was dried under nitrogen steam and reconstituted in 50:50 H2O/ACN. Calibration curve prepared by serial dilution of synthetic peptide solubilized in water in over the range 200–10 pM (y = 0.0167x + 0.7127, R^2 = 0.9998, LOD = 2.8 pM, LOQ = 8.6 pM).

Where a SMILES comes first, the peptide text is derived from it. Where only a bound is given, the exact number is not on record here.

Turning to `CC(C)NCC(O)COc1cccc2ccccc12` (centres unmarked) [propranolol, reference compound], the “apparent permeability coefficient (Papp) of monolayer control” value in series [1] (Caco-2 monolayers 21 days, transwell, HBSS, LC-MS/MS (SRM), integrity/reference marker) is 8.05 ± 0.16 × 10^−5 cm/s.

Take `CSCC[C@H](NC(=O)[C@@H]1CCCN1C(=O)[C@H](CCC(=O)O)NC(=O)[C@H](CCCCN)NC(=O)[C@@H](N)CCC(N)=O)C(=O)O` [PG1, Gln-Lys-Glu-Pro-Met] (H-QKEPM-OH): the chemical stability entry in series [2] is reported as “high peptide stability for up to 3 h”. Also, the “enzymatic stability (hydrolysis)” value in series [3] was “not hydrolysed”. In addition, the efflux ratio at 180 min in series [4] was less than 1. Besides, the “dependence of transmembrane uptake on proton gradient” value in series [1] (Caco-2 monolayers, HBSS pH 7.4 or pH 6.5) is “independent of the proton gradient”. For the same compound, in series [5], the “Caco-2 cell monolayers integrity” value is listed as “preserved”. In series [6], the metabolised at 1 h, 10 µM was roughly 13.2%. For the same compound, in series [7], the level at time molar was roughly 0.017 nM.
